In patent US10231980B2, “Cortexolone 17alpha-benzoate for use in the treatment of tumours” (COSMO TECHNOLOGIES LTD., priority 2014, dated 2019):
Where two headings read alike, the source gives them in different places.

Columns and labels:
[1] = In vitro metabolism in plasma; format: in vitro ADME, rat; details: 37 C
Experimental: To obtain some insight on the metabolism of CB-03-06 in human and rat plasma, a specific assay was designed. Briefly, the compound was incubated at different time points in human and rat plasma at 37 C. After incubation, the samples were tested for presence of the intact compound by liquid chromatography.

[2] = test system: caspases 8, 9, 3/7 in MiaPaca2 cells; assay: Caspase 8, 9 and 3/7 activity; format: cell-based
Experimental: To better analyze the phenomenon, the enzymatic activity of Caspase 8 (initiator caspase for Extrinsic Pathway) and Caspase 9 (initiator caspase for Intrinsic Pathway) and of Caspases 3 and 7 (effector caspases) were measured.

[3] = test system: PSA secretion from LNCaP cells; assay: PSA secretion Elisa; format: cell-based; details: Homo sapiens, 48 h, read-out: inhibition of PSA secretion IC50
Experimental: (§1) Prostate-specific antigen, or PSA, is a protein produced by cells of the prostate gland. The PSA test measures the level of PSA in a person's blood. The blood level of PSA is often elevated in men with prostate cancer and it used as surrogate marker to test prostate cancer progression in human population. […] LNCaP cells were seeded in 96-well flat bottom culture plates in media containing charcoal stripped serum with or without 10 nM DHT. […] After 48 hours incubation with test compounds, supernatants were harvested and tested with an Elisa assay for PSA and the same cells were lysed for cell viability assessment.

MiaPaca2 [4] = assay: ATP-dependent cell viability assay (Cell Titer Glo), Example 12; details: for Therapeutic Index = IC50 stimulated PBMC/IC50 cancer cell: Table VII
Excerpt: (§2) Data shown in Table I were fitted through sigmoidal dose response curves and analyzed using Prizm statistical.

LNCaP [5] = assay: as above; details: LNCaP; for Therapeutic Index = IC50 stimulated PBMC/IC50 cancer cell: Table VII
Excerpt: as §2

Panc1 = assay: as above; details: for Therapeutic Index = IC50 stimulated PBMC/IC50 cancer cell: Table VII
Excerpt: as §2

[6] = test system: caspases 8, 9, 3/7 in LNCaP cells; assay: Caspase 8, 9 and 3/7 activity; format: cell-based; details: 24 hour incubation, Enzalutamide positive control
Experimental: After 24 hours, test compounds were added to cells. Gemcitabine (a known pancreatic cancer chemotherapeutic agent) and DMSO were used as positive and negative controls, respectively. There were three incubation time points: 8 hours, 24 hours, and 48 hours. After each time point, cells were lysed in multiplex buffer containing the caspase 3/7 substrate combined with either caspase 8 or caspase 9 reagents, which contain stable luciferase in proprietary buffers. The lysates were transferred to white opaque 96-well plates before measuring luminescence on a Tecan Safire instrument. Parallel plates treated identically were used to determine cell viability. All caspase activities were corrected for the number of viable cells.
The same assay was repeated using LNCaP prostate cancer cell lines. […] The results are shown in FIG. 12 after 24 hour incubation when the caspase activities peaked.

LNCaP (AR+) = assay: ATP-dependent proliferation assay with 10 nM DHT, prostate cancer cells (Examples 1, 2); format: cell-based, human
Experimental: (§3) The experiment was performed to test and to define the antitumor activity in vitro of cortexolone 17α-benzoate on LNCaP (AR^+) and PC3 (AR^−), representative of Prostatic cancer cell lines with Androgen receptor positive or negative expression, respectively. The experimental method consisted of: • 1. […] After 24 hrs, 10 nM DHT (dihydrotestosterone) with or without anti-androgen compounds, or DMSO vehicle (negative control) was added to the cultures. • 3.
(§4) Data from Experiment 1 was fitted through sigmoidal dose response curves and analyzed using Prizm statistical analysis software. […] The results from 2 sets of experiments follow.
as §3, with “define” for “define the”, “17α-valerate-21-propionate” for “17α-benzoate”, “hours,” for “hrs,”

PC3 (AR−) = assay: as above; format: cell-based, human
Experimental: as §3, §4
as §3, with “define” for “define the”, “17α-valerate-21-propionate” for “17α-benzoate”, “hours,” for “hrs,”

resting PBMC = assay: IC50 on resting (quiescent) PBMC; format: cell-based, human
Experimental: The IC50 in PBMCs were tested in 2 different activation status: • stimulated—actively dividing cells • resting—quiescent, non-dividing cells
The IC50 in PBMCs were tested in 2 different activation status: • Stimulated—actively dividing cells • Resting—quiescent, non-dividing cells.
IC50 of the compounds was determined on fresh cells isolated from human blood (PBMC).

7 cancer cell lines = assay: Therapeutic index over a panel of cancer cell lines; format: cell-based; details: average over the cancer cell lines of Table VII
Experimental: (§5) The compound toxicity was determined as follow:
(§6) Therapeutic Index=Safety/Potency=IC50 stimulated PBMC/IC50 cancer cell

LNCaP [7] = assay: Cell viability of the cells of the PSA assay; format: cell-based; details: Homo sapiens, 48 h, read-out: cell viability IC50
Experimental: as §1

MDA-MB-231 = assay: In vitro proliferation / cytotoxic assay on breast cancer cells (Examples 14, 25); format: cell-based; details: Homo sapiens
Experimental: as §2
For the cytotoxic assay, cells were seeded in 96-well flat bottom culture plates in media containing charcoal stripped serum. After 24 hours, test compounds were added to the cells. DMSO was used as the vehicle negative control and RU486 as the positive control. After 72 hour incubation, cells were harvested and lysed to determine cell viability using the Cell Titer Glow assay.

stimulated PBMC = assay: IC50 on stimulated (actively dividing) PBMC; format: cell-based, human
Experimental: as §5, §6

MiaPaca2 [8] = assay: Cell cycle arrest, propidium iodide staining; format: cell-based; details: 24 hours, different concentrations
Experimental: Apoptosis can occur at the G1/S or G2/M transition of the cell cycle. Cells were treated with CB-03-10 for 24 hours then fixed with paraformaldehyde and stained with propidium iodide. […] The lack of G1 block indicates no effect on p53. The S & G2/M blocks may indicate activity on cell cycle check point molecules. For S phase, a possible target is the cyclin dependent kinase 2 (CDK2). Gemzar and cisplatin are example drugs that act in S phase. For G2, a possible target is CDK1.

## C[C@]12CCC(=O)C=C1CC[C@@H]1[C@@H]2CC[C@@]2(C)[C@H]1CC[C@]2(OC(=O)c1ccccc1)C(=O)CO [CB-03-06, cortexolone 17α-benzoate]
[1]
  degradation in rat compared to human plasma: degrades faster in rat compared to human plasma
[1]; rat plasma, through 8 hours
  intact compound, % of initial concentration: over 90%
[2]; 20 or 50 μM, evident after 8 hours
  caspase 8 and 9 activity, increase compared to the control: ≤ 7 fold
[2]; 48 hour incubation
  Caspase 3/7 induction: induced by CB-03-06 at high level
[3]
  IC50: 4 µM
MiaPaca2 [4]; Homo sapiens, MIA PaCa-2, 72 h
  IC50: 20 µM
MiaPaca2 [4]; Homo sapiens, MIA PaCa-2, read-out: In vitro proliferation IC50
  IC50: 20 µM
MiaPaca2 [4]; Homo sapiens, MIA PaCa-2, read-out: in vitro proliferation IC50
  IC50: 20 µM
MiaPaca2 [4]; MiaPaca2, Table IV
  Therapeutic Index = IC50 resting PBMC/IC50 cancer cell: 5
MiaPaca2 [4]; MiaPaca2
  Therapeutic Index = IC50 stimulated PBMC/IC50 cancer cell: 5
LNCaP [5]; Homo sapiens, 72 h
  IC50: 12 µM
LNCaP [5]; Homo sapiens, read-out: In vitro proliferation IC50
  IC50: 12 µM
LNCaP [5]; Homo sapiens, read-out: in vitro proliferation IC50
  IC50: 12 µM
LNCaP [5]; Table IV
  Therapeutic Index = IC50 resting PBMC/IC50 cancer cell: 8
LNCaP [5]
  Therapeutic Index = IC50 stimulated PBMC/IC50 cancer cell: 8
Panc1; Homo sapiens, PANC-1, 72 h
  IC50: 28 µM
Panc1; Homo sapiens, PANC-1, read-out: In vitro proliferation IC50
  IC50: 28 µM
Panc1; Homo sapiens, PANC-1, read-out: in vitro proliferation IC50
  IC50: 28 µM
Panc1; Panc1, Table IV
  Therapeutic Index = IC50 resting PBMC/IC50 cancer cell: 3
Panc1; Panc1
  Therapeutic Index = IC50 stimulated PBMC/IC50 cancer cell: 3
[6]
  Initiator (8 and 9) and Effector (3/7) caspase activities: induced Initiator (8 and 9,) and Effector (3/7) caspase activities better than Enzalutamide
LNCaP (AR+); Homo sapiens, LNCaP/AR
  IC50: 12 µM
LNCaP (AR+); Homo sapiens, LNCaP/AR, 72 h
  IC50: 12 µM
PC3 (AR−); Homo sapiens, PC3/AR
  IC50: 28 µM
PC3 (AR−); Homo sapiens, PC3/AR, 72 h
  IC50: 29 µM
Resting PBMC; Homo sapiens, PBMC, read-out: IC50 on Resting PBMC, Example 7, Experiment 1
  IC50: 100 µM
Resting PBMC; Homo sapiens, PBMC, read-out: IC50 on Resting PBMC, Example 7, Experiment 2
  IC50: 85 µM
Resting PBMC; Homo sapiens, PBMC, read-out: in vitro proliferation IC50, PBMC RESTING, Table III
  IC50: 85 µM
7 cancer cell lines
  Therapeutic Index = IC50 stimulated PBMC/IC50 cancer cell, AVERAGE: 5
LNCaP [7]
  IC50: 12 µM
MDA-MB-231; MDA-MB-231, 72 h
  IC50: 46 µM
MDA-MB-231; MDA-MB-231, read-out: in vitro proliferation IC50
  IC50: 46 µM
Stimulated PBMC; Homo sapiens, PBMC, read-out: IC50 on Stimulated PBMC, Example 7, Experiment 1
  IC50: 113 µM
Stimulated PBMC; Homo sapiens, PBMC, read-out: IC50 on Stimulated PBMC, Example 7, Experiment 2
  IC50: 97 µM
Stimulated PBMC; Homo sapiens, PBMC, read-out: In vitro proliferation IC50, PBMC STIMULATED, Table IV
  IC50: 97 µM
Stimulated PBMC; Homo sapiens, PBMC, read-out: in vitro proliferation IC50, PBMC STIMULATED, Table III
  IC50: 97 µM
MiaPaca2 [8]
  cell cycle arrest: induces an S phase block at lower concentrations then a G2/M block at higher concentration

## CCCCC(=O)O[C@]1(C(=O)COC(=O)CC)CC[C@H]2[C@@H]3CCC4=CC(=O)CC[C@]4(C)[C@H]3CC[C@@]21C [CB-03-10, cortexolone 17α-valerate-21-propionate]
MiaPaca2 [4]; MiaPaca2, Table IV
  Therapeutic Index = IC50 resting PBMC/IC50 cancer cell: 3
MiaPaca2 [4]; MiaPaca2
  Therapeutic Index = IC50 stimulated PBMC/IC50 cancer cell: 3
MiaPaca2 [4]; MiaPaca2, Tables I and II, titrated 3 uM to 200 uM, 3 days
  IC50: 37 µM
MiaPaca2 [4]; read-out: In vitro proliferation IC50, MiaPaca2, Table IV
  IC50: 37 µM
LNCaP [5]; Table IV
  Therapeutic Index = IC50 resting PBMC/IC50 cancer cell: 9
LNCaP [5]
  Therapeutic Index = IC50 stimulated PBMC/IC50 cancer cell: 9
LNCaP [5]; Tables I and II, titrated 3 uM to 200 uM, 3 days
  IC50: 10 µM
LNCaP [5]; read-out: In vitro proliferation IC50, Table IV
  IC50: 10 µM
Panc1; Panc1, Table IV
  Therapeutic Index = IC50 resting PBMC/IC50 cancer cell: 2
Panc1; Panc1
  Therapeutic Index = IC50 stimulated PBMC/IC50 cancer cell: 2
Panc1; Panc1, Tables I and II, titrated 3 uM to 200 uM, 3 days
  IC50: 60 µM
Panc1; read-out: In vitro proliferation IC50, Panc1, Table IV
  IC50: 60 µM
LNCaP (AR+); LNCaP, Experiment 1, sigmoidal dose response fit, 10 nM DHT, 3 days, read-out: IC50
  IC50: 13 µM
LNCaP (AR+); LNCaP, Experiment 2, nonlinear regression least squares fit, additional experiments, read-out: IC50
  IC50: 10 µM
PC3 (AR−); PC3, Experiment 1, sigmoidal dose response fit, 10 nM DHT, 3 days, read-out: IC50
  IC50: 55 µM
PC3 (AR−); PC3, Experiment 2, nonlinear regression least squares fit, additional experiments, read-out: IC50
  IC50: 50 µM
Resting PBMC; Example 7, Experiment 1, read-out: IC50 on Resting PBMC
  IC50: 114 µM
Resting PBMC; Example 7, Experiment 2, read-out: IC50 on Resting PBMC
  IC50: 120 µM
7 cancer cell lines
  Therapeutic Index = IC50 stimulated PBMC/IC50 cancer cell, AVERAGE: 4
Stimulated PBMC; Example 7, Experiment 1, read-out: IC50 on Stimulated PBMC
  IC50: 106 µM
Stimulated PBMC; Example 7, Experiment 2, read-out: IC50 on Stimulated PBMC
  IC50: 94 µM
Stimulated PBMC; PBMC STIMULATED, Table IV, read-out: In vitro proliferation IC50
  IC50: 94 µM
